≈ marks a conversion by molar mass, not a printed value. Read-outs that look alike come from different tables or passages of the source.
Legend:
B. distasonis = conditions: Goldstein, et al.; cited from earlier work
F. ulcerans = test: Agar dilution MIC; assay type: cell-based; conditions: Fusobacterium ulcerans
peptostreptococci = conditions: cited from earlier work
clostridial isolates = conditions: cited from earlier work
F. necrophorum = test: Agar dilution MIC; assay type: cell-based; conditions: Fusobacterium necrophorum; read-out: concentration to which strains were susceptible (MIC)
Clostridium ramosum = conditions: prior study (Goldstein, et al.), 14 isolates; cited from earlier work
Gram-positive anaerobes = test: Agar dilution activity against Gram-positive anaerobes; assay type: cell-based; conditions: for activity compared with trovafloxacin: Gram-positive strains
[1] = tested on: certain Porphyromonas strains; conditions: Goldstein, et al.; cited from earlier work
B. ovatus = conditions: Goldstein, et al.; cited from earlier work
Anaerobiospirillum spp. = test: Agar dilution MIC; assay type: cell-based
B. thetaiotaomicron = conditions: Goldstein, et al.; cited from earlier work
[2] = Marco, et al., 18 strains of peptostreptococci

CO/N=C1\CN(c2nc3c(cc2F)c(=O)c(C(=O)O)cn3C2CC2)CC1CN (racemic) [Gemifloxacin, (R,S)-7-(3-aminomethyl-4-methoxyiminopyrrolidin-1-yl)-1-cyclopropyl-6-fluoro-4-oxo-1,4-dihydro-1,8-naphthyridine-3-carboxylic acid]
activity (B. distasonis): only limited activity | MIC90 (F. ulcerans): ≥ 4 µg/mL | MIC90 (peptostreptococci; Cormicon and Jones, 10 strains of peptostreptococci): 2 µg/mL (≈ 5.14 µM) | MIC90 (peptostreptococci; [2]): 2 µg/mL (≈ 5.14 µM) | MIC range (peptostreptococci; [2]): 0.25 to 8 µg/mL | maximum MIC (clostridial isolates; Cormicon and Jones, ten clostridial isolates): 2 µg/mL | concentration to which all isolates were susceptible (MIC) (clostridial isolates; Marco, et al., 19 unspecieted clostridial isolates): ≤ 2 µg/mL | MIC (F. necrophorum): ≤ 2 µg/mL | MIC90 (Clostridium ramosum): 8 µg/mL (≈ 20.5 µM) | activity (Gram-positive anaerobes): good activity | activity compared with trovafloxacin (Gram-positive anaerobes): generally more active than trovafloxacin against Gram-positive strains by one to two dilutions | activity compared with trovafloxacin (Gram-positive anaerobes; listed as gemifloxacin): compared favorably with trovafloxacin | activity [1]: showed activity | activity (B. ovatus): only limited activity | MIC90 (Anaerobiospirillum spp.): ≤ 2 µg/mL | activity (B. thetaiotaomicron): only limited activity
